This is an account of results in US12419308B2, “Phenylpyrazole insecticide compounds and compositions” (priority 2023, dated 2025).

A short description of data set [1]: Plasma concentration analysis in topically treated chickens. The conditions noted are these: Compound of Example 1 treatment, topical spray 7.5 mg/kg once daily. The procedure: To explore the therapeutic potential of the compounds of the present disclosure, live chickens with mite infestation (Dermanyssus gallinae) are treated topically with solutions of test compound, with Fipronil as a positive control. Test solutions are prepared by dissolving the test compound in a mixture of 2-butoxyethanol, ethanol, and water (7:2:1) to reach a final concentration of 0.25% (w/v).
The test solution is administered using a mechanical spray pump delivering 0.5 mL of solution per actuation. The test solution is sprayed over the entire surface of the animal's body from a distance of 10-20 centimeters, resulting in direct contact of the solution with the animal's skin. The dosage applied to each animal is 3 mL/kg, equivalent to 7.5 mg/kg (kg live weight). The dosage is achieved using six actuations of the spray per kg of body weight per day. The treatment is administered once daily for 5 days at 24 hours intervals. One animal is left untreated as a negative control.
Blood samples are taken from each animal before the first treatment (T=0), and at 24-hour intervals thereafter. Each egg produced after a treatment is collected for later analysis.
Plasma samples are derived from each blood sample using standard procedures immediately after blood collection. Plasma is stored frozen at −80° C. until the time of analysis. Samples are then thawed at room temperature and extraction is performed by solid phase extraction (SPE) (Strata-X 33. Polymeric Reversed Phase, 60 mg/3 mL, Phenomenex) on an aliquot of sample (100 μl) pretreated for protein precipitation with 300 μl of acetonitrile. After protein precipitation, the samples are well vortexed and then centrifuged (12000 rpm, 10 min, RT). Supernatant is collected and transferred to clean Falcon tubes and diluted with 3 ml of water. Strata-X columns are conditioned with 2 ml of methanol and with 2 ml of water. Samples are loaded after conditioning, and the columns are washed with 2 ml of water, and analytes are eluted with 2 nil of methanol, dried under nitrogen and then resuspended in 100 μl of acetonitrile for mass spectral analysis.
A Thermo Q-exactive mass spectrometer (Thermo Fisher Scientific, Waltham, MA) is used. The LC system, governed by Chromeleon X-press software, consists of a binary pump, a thermostated autosampler, and a column compartment, all Dionex Ultimate 3000 series modules (Thermo Fisher Scientific, Waltham, MA). A volume of 2 μL is injected for each sample. Chromatographic separation of analytes is conducted in reverse-phase chromatography. A Luna Omega 1.6 μm Polar (CIS, 2.1 mm×100 mm) is used, and the mobile phases are (A) water and (B) acetonitrile, both containing 0.1% v/v formic acid. […]
Plasma samples from Day 3 and Day 5 are analyzed.

Data set [2] can be described thus: Egg concentration analysis from topically treated chickens. It counts as in vivo. Particulars: eggs from Day 5. The method, then:
One animal is left untreated as a negative control.
A modified and optimized QuEChERS protocol was employed to extract the compounds from eggs. The shell is manually removed, and then each egg is transferred to a clean beaker and homogenized with an electric mixer for small volumes. 5 grams of homogenized egg is put into a 50 mL Falcon tube, and 5 mL of water is added and the samples are shaken for 10 minutes. Next, 10 mL of acetonitrile is added and the samples are shaken again for 10 minutes. Then the roQ salts (4.0 g MgSO4, 1.0 g NaCl, 1.0 SCTD and 0.5 g SCDS, Phenomenex P/N KS08909) are added to each sample, and the mixture is well shaken for 10 minutes. Samples are then centrifuged at 2500 g for 5 minutes at room temperature, and the supernatant is transferred to an HPLC vial for analysis. The same HPLC-MS method is used as described above.
One egg from two chickens is analyzed: one chicken treated with Fipronil and one chicken treated with the Compound of Example 1. The eggs are both from Day 5. The results are shown in the following tables expressed as relative LC-MS peak area: […]

The subject of the next data set is Dermanyssus gallinae. Description: Antiparasitic efficacy on live chickens with natural mite infestation. The format is in vivo. The conditions noted are these: by day 5 of treatment; 0.25% (w/v) spray, 7.5 mg/kg once daily for 5 days. The procedure: Two animals are treated with the compound of Example 1, and two animals are treated with Fipronil, while one animal is left untreated as a negative control. The infestation by D. gallinae is monitored by checking the density of mites in particular areas of the animal's bodies (feet, legs, and wings), comparing pre-treatment levels of infestation to post-treatment levels.
When all pests have been eliminated, a 100% pest control capability was achieved. In the case of some chemical products, when the pest was not fully eliminated, the disinfestation capacity was measured by averaging the number of infesting organisms located in three distinct areas of the treated animals, at the beginning of the treatment, and at the end of the treatment.

Data set [3] deals with Human Cryopreserved Hepatocytes. Nature of the data set: Metabolic stability in human cryopreserved hepatocytes. It counts as in vitro ADME. The procedure: The metabolic stability of the Compounds of Examples 1 and 4 is therefore evaluated to determine whether metabolic degradation results in metabolites of concern.
Briefly, Human Cryopreserved Hepatocytes (Gibco, lot. HUE125) are added to incubation wells in a 96-well assay plate at a density of 500,000 cells/mL in William's E Medium. […] The wells are incubated at 37° C. and stop solution is added to wells at time points: 0, 30, 60, 120, 240 min. The stop solution is ice-cold solution containing 0.5 μM labetalol in acetonitrile (100 μL/well) (2:1, vol/vol). Each time point is tested in triplicate. Analysis is carried out by LC-MS.
• Instrument: QExactive • Column: Luna Omega 1.6 μm polar C18 100 Å (150×2.1 mm) • Column temperature: 40° C. • Column No: 102+pre-column installed • Injection volume: 2 μl • Flux: 0.40 mL/min • Polarity: Negative • Fluent A: water Milli Q+0.1% FA • Fluent B: ACN+0.1% FA • Acquisition method: Full MS+DDS on the IL obtained with MassMetaSite (peak others ON).

Where [4] appears, read: human hepatocytes, up to 240 min, 1 μM.

On to `N#Cc1nn(-c2c(Cl)cc(C(F)(F)F)cc2Cl)c2nc(O)cc(C(F)(F)F)c12` [Example 1, 1-(2,6-dichloro-4-(trifluoromethyl)phenyl)-6-hydroxy-4-(trifluoromethyl)-1H-pyrazolo[3,4-b]pyridine-3-carbonitrile], for which the “Plasma concentration of analyte” value in data set [1] (Chicken 3, 3 days) was 0.01 ppm; in data set [1] (Chicken 3, 5 days), 0.03 ppm; in data set [1] (Chicken 4, 3 days), 0.7 ppm; in data set [1] (Chicken 4, 5 days), 1.2 ppm. For the same compound, the “Accumulation in eggs of treated chickens compared to Fipronil” value in data set [2] is “substantially less accumulation in the eggs”. Further, in the data set on Dermanyssus gallinae, the “Chickens free of mites” value worked out at 100%. The “Original compound still present” value in data set [3] (after 240 minutes, 1 μM, 500,000 cells/mL, 37° C.) is listed as “approximately 95.5%”. The “Metabolic stability (in words)” value in data set [3] (setting [4]) was “metabolically stable”. In addition, the Metabolite peaks observed result in data set [3] (setting [4]) was “no particular peaks indicative of metabolites”.
